Toxic doses and inconclusive results are not listed.
Test system: L1210 leukemia ip in BDF1 mice, survival T/C
Assay: NCI In Vivo Anticancer Drug Screen. Data for tumor model L1210 Leukemia (intraperitoneal) in B6D2F1 (BDF1) mice
Settings: endpoint: mean survival time, higher = longer survival
Method in brief: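 Ratio derived from survival: compound-dosed mice over vehicle-dosed mice, all bearing a transplantable tumor.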

[1] = dose: 100.0 mg/kg/injection, schedule: Q01DX009 (ip), vehicle: saline with Tween-80
[2] = dose: 100.0 mg/kg/injection, schedule: Q04DX003 (ip), vehicle: saline with Tween-80
[3] = dose: 200.0 mg/kg/injection, schedule: Q01DX009 (ip), vehicle: saline with Tween-80
[4] = dose: 200.0 mg/kg/injection, schedule: Q04DX003 (ip), vehicle: saline with Tween-80
[5] = dose: 400.0 mg/kg/injection, schedule: Q01DX009 (ip), vehicle: saline with Tween-80
[6] = dose: 400.0 mg/kg/injection, schedule: Q04DX003 (ip), vehicle: saline with Tween-80
[7] = dose: 100.0 mg/kg/injection, schedule: Q01DX009 (ip), vehicle: saline
[8] = dose: 200.0 mg/kg/injection, schedule: Q01DX009 (ip), vehicle: saline
[9] = dose: 400.0 mg/kg/injection, schedule: Q01DX009 (ip), vehicle: saline
[10] = dose: 100.0 mg/kg/injection, schedule: Q04DX003 (ip), vehicle: saline
[11] = dose: 200.0 mg/kg/injection, schedule: Q04DX003 (ip), vehicle: saline
[12] = dose: 100.0 mg/kg/injection, schedule: Q01DX001 (ip), vehicle: saline
[13] = dose: 200.0 mg/kg/injection, schedule: Q01DX001 (ip), vehicle: saline
[14] = dose: 400.0 mg/kg/injection, schedule: Q01DX001 (ip), vehicle: saline
[15] = dose: 75.0 mg/kg/injection, schedule: Q04DX003 (ip), vehicle: saline
[16] = dose: 100.0 mg/kg/injection, schedule: Q04DX003 (ip), vehicle: Klucel (hydroxypropylcellulose) (HPC)
[17] = dose: 200.0 mg/kg/injection, schedule: Q04DX003 (ip), vehicle: Klucel (hydroxypropylcellulose) (HPC)
[18] = dose: 400.0 mg/kg/injection, schedule: Q04DX003 (ip), vehicle: Klucel (hydroxypropylcellulose) (HPC)
[19] = dose: 6.25 mg/kg/injection, schedule: Q01DX001 (ip), vehicle: saline with Tween-80
[20] = dose: 100.0 mg/kg/injection, schedule: Q01DX001 (ip), vehicle: saline with Tween-80
[21] = dose: 100.0 mg/kg/injection, schedule: Q01DX009 (ip), vehicle: Klucel (hydroxypropylcellulose) (HPC)
[22] = dose: 200.0 mg/kg/injection, schedule: Q01DX009 (ip), vehicle: Klucel (hydroxypropylcellulose) (HPC)
[23] = dose: 400.0 mg/kg/injection, schedule: Q01DX009 (ip), vehicle: Klucel (hydroxypropylcellulose) (HPC)

With `CC1CCC=C2C(=O)C3OC(C)(C)C(C3O)C21C` (centres undefined) the T/C [1] was 96 % of control, the T/C [2] was 97 % of control and the T/C [3] was 91 % of control. For the same compound, the T/C [4] was 103 % of control, the T/C [5] was 93 % of control and the T/C [6] was 90 % of control.

For `CC1(N)CCOC1=O` (centres undefined), the T/C [7] was 93 % of control, the T/C [8] was 93 % of control and the T/C [9] was 93 % of control.

In the case of `CCOC1NC(C)(C)CO1` (centres undefined), the T/C [7] was 101 % of control, the T/C [10] was 115 % of control and the T/C [8] was 101 % of control. For the same compound, the T/C [11] was 97 % of control, the T/C [9] was 97 % of control and the T/C (dose: 400.0 mg/kg/injection, schedule: Q04DX003 (ip), vehicle: saline) was 121 % of control.

With `C=CCC(C#N)(C(=O)OCC)/C(C)=C/C` (centres undefined) the T/C (dose: 75.0 mg/kg/injection, schedule: Q01DX001 (ip), vehicle: other) was 100 % of control, the T/C (dose: 150.0 mg/kg/injection, schedule: Q01DX001 (ip), vehicle: other) was 103 % of control and the T/C (dose: 300.0 mg/kg/injection, schedule: Q01DX001 (ip), vehicle: other) was 97 % of control.

In the case of `CCCCCCCCC(=O)CCCCCC`, the T/C [1] was 99 % of control, the T/C [2] was 105 % of control and the T/C [3] was 97 % of control. The T/C [4] was 108 % of control, the T/C [5] was 99 % of control and the T/C [6] was 101 % of control.

For `C=CCN(CC=C)P(N(CC=C)CC=C)N(CC=C)CC=C`, the T/C (dose: 75.0 mg/kg/injection, schedule: Q01DX009 (ip), vehicle: saline) was 98 % of control and the T/C (dose: 150.0 mg/kg/injection, schedule: Q01DX009 (ip), vehicle: saline) was 96 % of control.

With `O=c1cc(/C=C/c2ccc3ccccc3n2)c2ccccc2[nH]1` the T/C [12] was 98 % of control, the T/C [13] was 96 % of control and the T/C [14] was 102 % of control.

For `OC(CNc1ccc(Cl)cc1)CN1CCCC1` (centres undefined), the T/C [15] was 101 % of control.

`Oc1ccc2ccccc2c1C=Nc1ccc(Br)cc1` was tested, and the T/C [16] was 91 % of control, the T/C [17] was 90 % of control and the T/C [18] was 91 % of control.

In the case of `[Cl][Pt+2][Cl].[NH-]CC1CCCC[N-]1` (centres undefined), the T/C (dose: 3.13 mg/kg/injection, schedule: Q04DX003 (ip), vehicle: saline) was 111 % of control, the T/C (dose: 6.25 mg/kg/injection, schedule: Q04DX003 (ip), vehicle: saline) was 108 % of control and the T/C (dose: 12.5 mg/kg/injection, schedule: Q04DX003 (ip), vehicle: saline) was 122 % of control. The T/C [10] was 163 % of control and the T/C [11] was 120 % of control.

`COC1CCC2=C(C1)C(=O)CC1c3ccccc3CCN21` (centres undefined) (tested in a mixture with another compound) was tested, and the T/C (dose: 6.25 mg/kg/injection, schedule: Q04DX003 (ip), vehicle: saline with Tween-80) was 97 % of control, the T/C (dose: 12.5 mg/kg/injection, schedule: Q04DX003 (ip), vehicle: saline with Tween-80) was 107 % of control and the T/C (dose: 25.0 mg/kg/injection, schedule: Q04DX003 (ip), vehicle: saline with Tween-80) was 102 % of control.

For `CC(=S)c1ccccc1`, the T/C (dose: 50.0 mg/kg/injection, schedule: Q04DX003 (ip), vehicle: Klucel (hydroxypropylcellulose) (HPC)) was 102 % of control, the T/C [16] was 107 % of control and the T/C [17] was 92 % of control. For the same compound, the T/C [18] was 97 % of control.

For `COc1ccc(OC)c(NC(=O)Oc2ccc3ccccc3c2)c1`, the T/C (dose: 100.0 mg/kg/injection, schedule: Q04DX002 (ip), vehicle: saline) was 93 % of control, the T/C (dose: 200.0 mg/kg/injection, schedule: Q04DX002 (ip), vehicle: saline) was 101 % of control and the T/C (dose: 400.0 mg/kg/injection, schedule: Q04DX002 (ip), vehicle: saline) was 96 % of control.

In the case of `Cc1ccc(S(=O)(=O)N(C)c2ccc(C(=O)O)cc2F)cc1`, the T/C (dose: 75.0 mg/kg/injection, schedule: Q01DX001 (ip), vehicle: saline) was 105 % of control, the T/C [15] was 100 % of control and the T/C (dose: 150.0 mg/kg/injection, schedule: Q01DX001 (ip), vehicle: saline) was 90 % of control. For the same compound, the T/C (dose: 150.0 mg/kg/injection, schedule: Q04DX003 (ip), vehicle: saline) was 97 % of control, the T/C (dose: 300.0 mg/kg/injection, schedule: Q01DX001 (ip), vehicle: saline) was 98 % of control and the T/C (dose: 300.0 mg/kg/injection, schedule: Q04DX003 (ip), vehicle: saline) was 97 % of control.

In the case of `O=C(O)C(O)(c1ccccc1)C1CCCCC1` (centres undefined), the T/C (dose: 100.0 mg/kg/injection, schedule: Q04DX002 (ip), vehicle: saline with Tween-80) was 91 % of control, the T/C (dose: 200.0 mg/kg/injection, schedule: Q04DX002 (ip), vehicle: saline with Tween-80) was 105 % of control and the T/C (dose: 400.0 mg/kg/injection, schedule: Q04DX002 (ip), vehicle: saline with Tween-80) was 98 % of control.

`CC(/C=C\C1CCCCC1)=C\C=C\C(C)=C\C=N\Nc1ccc([N+](=O)[O-])cc1[N+](=O)[O-]` was tested, and the T/C (dose: 1.56 mg/kg/injection, schedule: Q01DX001 (ip), vehicle: saline with Tween-80) was 95 % of control, the T/C (dose: 3.13 mg/kg/injection, schedule: Q01DX001 (ip), vehicle: saline with Tween-80) was 95 % of control and the T/C [19] was 95 % of control. For the same compound, the T/C (dose: 50.0 mg/kg/injection, schedule: Q01DX001 (ip), vehicle: saline with Tween-80) was 89 % of control.

For `COc1ccc(C2(CO)OC(CO)C(O)C2O)cc1` (centres undefined), the T/C (dose: 50.0 mg/kg/injection, schedule: Q01DX001 (ip), vehicle: saline) was 105 % of control, the T/C [12] was 103 % of control and the T/C [13] was 97 % of control. The T/C [14] was 94 % of control.

With `NC(=O)c1cc(Cl)cc(Cl)c1N1CC[N+](CCCl)=N1` the T/C [20] was 103 % of control.

For `CCCCNC(=O)NC(C(=O)OCC)C(=O)OCC`, the T/C [21] was 97 % of control, the T/C [16] was 100 % of control and the T/C [22] was 102 % of control. The T/C [17] was 100 % of control, the T/C [23] was 96 % of control and the T/C [18] was 102 % of control.

`O=[As](O)(CC(O)COc1ccccc1)c1ccccc1` (centres undefined) was tested, and the T/C [19] was 98 % of control and the T/C (dose: 12.5 mg/kg/injection, schedule: Q01DX001 (ip), vehicle: saline with Tween-80) was 98 % of control.

In the case of `Cn1cnc2cnc([N+](C)(C)C)nc21`, the T/C [10] was 103 % of control and the T/C [11] was 114 % of control.

In the case of `NNC(=O)C1CC2C=CCC(C2)C1` (centres undefined), the T/C [20] was 98 % of control and the T/C (dose: 200.0 mg/kg/injection, schedule: Q01DX001 (ip), vehicle: saline with Tween-80) was 92 % of control.

In the case of `C=C(Cl)COC(=S)S`, the T/C [12] was 107 % of control, the T/C [13] was 103 % of control and the T/C [14] was 100 % of control.

`Cc1cc(C)c(S(=O)(=O)O)cc1[N+](=O)[O-]` was tested, and the T/C [21] was 96 % of control, the T/C [22] was 101 % of control and the T/C [23] was 98 % of control.

`O=C(Nc1cccc(C(F)(F)F)c1)Nc1nccs1` was tested, and the T/C [21] was 100 % of control, the T/C (dose: 100.0 mg/kg/injection, schedule: Q04DX002 (ip), vehicle: Klucel (hydroxypropylcellulose) (HPC)) was 94 % of control and the T/C [22] was 115 % of control. For the same compound, the T/C (dose: 200.0 mg/kg/injection, schedule: Q04DX002 (ip), vehicle: Klucel (hydroxypropylcellulose) (HPC)) was 108 % of control, the T/C [23] was 92 % of control and the T/C (dose: 400.0 mg/kg/injection, schedule: Q04DX002 (ip), vehicle: Klucel (hydroxypropylcellulose) (HPC)) was 89 % of control.

`Cc1cccc2c(Cl)c3cccc(C)c3nc12` was tested, and the T/C [21] was 96 % of control, the T/C (dose: 100.0 mg/kg/injection, schedule: Q04DX003 (ip), vehicle: other) was 95 % of control and the T/C [22] was 93 % of control. The T/C (dose: 200.0 mg/kg/injection, schedule: Q04DX003 (ip), vehicle: other) was 94 % of control, the T/C [23] was 102 % of control and the T/C (dose: 400.0 mg/kg/injection, schedule: Q04DX003 (ip), vehicle: other) was 97 % of control.

For `CCCCC(CSC#N)SC#N` (centres undefined), the T/C (dose: 3.13 mg/kg/injection, schedule: Q01DX009 (ip), vehicle: saline with Tween-80) was 94 % of control, the T/C (dose: 6.25 mg/kg/injection, schedule: Q01DX009 (ip), vehicle: saline with Tween-80) was 94 % of control and the T/C (dose: 12.5 mg/kg/injection, schedule: Q01DX009 (ip), vehicle: saline with Tween-80) was 94 % of control.
